Test results from patent US20060205692A1, “1,1-and 1,2-Bisphosphonates as apoliprotein e modulators” (priority 2002, published 2006).

Test system: ApoE
Test: apoE secretion by PMA-differentiated THP-1 cells, apoE quantified by ELISA
Type: cell-based, human
Settings: 3 days; for percent change in apoE secretion versus control at 25 µM / percent change in apoE secretion versus control at 50 µM / percent change in apoE secretion versus control at 100 µM: Homo sapiens, THP-1, 72 h
Excerpt: The bisphosphonate compounds of the invention can modulate (increase or decrease) apoE levels in plasma and in tissues. The activities of the compounds can be determined in an in vitro cell assay comprising determining the modulatory effect of the test compound on the secretion of apoE by an apoE secreting cell line (e.g., a monocyte-macrophage cell line such as the THP-1 cell line, a liver derived cell line such as the HepG2 cell line, an intestinal derived cell line such as the CaCo2 cell line or a brain derived cell line such as the astrocytoma CCF-STTG1 cell line).
THP-1 cell line (ATCC TIB-202) are cultured in RPMI 1640 (with 2 mM of L-glutamine and 2 g/l of glucose, Invitrogen) supplemented with 2 g/l of sodium hydrogen carbonate (Fluka), 10 U/ml of penicillin, 10 μg/ml of streptomycin (Penicillin-Streptomycin, Invitrogen), 20 μM of 2-mercaptoethanol (Fluka) and 10% FCS (Amimed). Cells are incubated at 37° C. and 5% CO2.
Cells are seeded in 24 well tissue culture plates (Falcon), 2×10^5 cells in 500 μl of culture medium per well or 6 well plates for RT-PCR purpose, 1×10^6 cells in 2.5 ml of medium. PMA (Phorbol 12-myristate 13-acetate, Alexis), (stock in DMSO (Fluka) at 1 mg/ml) and other compounds are diluted in ethanol and added to the cells at an ethanol final concentration not exceeding 1%. Same volume of ethanol is added in controls. Plates are incubated for 3 days at 37° C. and 5% CO2 to allow cell differentiation and apoE secretion.
Medium contained in the wells is harvested and centrifuged 5 min at 1200 rpm. Supernatants are store at −20° C. until apoE quantification. The cell pellets are resuspended in PBS and counted with a ZI Coulter Counter. After a wash with PBS, adherent cells in the well bottoms are detached with trypsin-EDTA solution 10× (Invitrogen) diluted in PBS. The reaction is stopped with the addition of culture medium and the detached cells are counted.
ApoE was quantified by ELISA. 96 well plates (Costar) are coated with 5% of gelatine (from porcine skin, Fluka) in carbonate-bicarbonate buffer (Sigma) for 1 hour at 37° C. After removing the coating solution, 100 μl of THP-1 supernatant are added per well, diluted 5 times in buffer (PBS, 1% Top-Block (Juro), 0.1% Tween 20 (Fluka)). The incubation last 1 hour at 37° C., then the wells are washed 3 times with 200 μl of buffer. Plates are incubated for 1 hour at 37° C. with continuous stirring with the primary antibody (goat anti-human apoE IgG, Calbiochem) at a 10000-time dilution in buffer, 100 μl per well. After 3 washes, plates are incubated with the secondary antibody (rabbit anti-goat-IgG peroxidase conjugated, Sigma) diluted 5000 times, 100 μl per well, at 37° C. with shaking. Then the wells are washed 5 more times and the detection is achieved by adding 100 μl per well of o-phenylenediamine dihydrochloride (Sigma) and incubated for 15-20 minutes with shaking at room temperature. When the appropriated colour is reached, the reaction is stopped by adding 50 μl per well of 3 M sulfuric acid (Fluka) with shaking for 1 minute at room temperature. The absorbance is read at 492 nm versus 620 nm with a microplate photometer (Anthos Reader 2001).

SMILES	% ApoE Change (compound 25 μM, 1.25 nM PMA)	% ApoE Change (compound 25 μM, 2.5 nM PMA)	% ApoE Change (compound 50 μM, 1.25 nM PMA)	% ApoE Change (compound 50 μM, 2.5 nM PMA)	% ApoE Change (compound 100 μM, 1.25 nM PMA)	% ApoE Change (compound 100 μM, 2.5 nM PMA)	percent change in apoE secretion versus control at 25 µM (compound 25 μM, 1.25 nM PMA)	percent change in apoE secretion versus control at 25 µM (compound 25 μM, 2.5 nM PMA)	percent change in apoE secretion versus control at 50 µM (compound 50 μM, 1.25 nM PMA)	percent change in apoE secretion versus control at 50 µM (compound 50 μM, 2.5 nM PMA)	percent change in apoE secretion versus control at 100 µM (compound 100 μM, 1.25 nM PMA)	percent change in apoE secretion versus control at 100 µM (compound 100 μM, 2.5 nM PMA)
CCOc1ccc(C(CP(=O)(OCC)OCC)P(=O)(OCC)OCC)cc1 (stereo not shown) [Tetraethyl 1-(4-ethoxyphenyl)-ethylidene-1,2-bisphosphonate]	−16%	5%	−12%	4%	36%	54%	–	–	–	–	–	–
CCOP(=O)(OCC)C(c1ccc(O)cc1)P(=O)(OCC)OCC [Tetraethyl 1-(4-hydroxy-phenyl)-methylidene-1,1-bisphosphonate]	–	–	–	–	–	–	-13%	-3%	26%	-9%	125%	60%
CCOP(=O)(OCC)C(c1ccc(OCCN(CCC#N)c2ccccc2)cc1)P(=O)(OCC)OCC [Tetraethyl 1-(4-{2-[(2-cyano-ethyl)-phenyl-amino]-ethoxy}-phenyl)-methylidene-1,1-bisphosphonate]	–	–	–	–	–	–	276%	209%	678%	311%	–	499%
CCOP(=O)(CC(c1cccc(OCCc2ccccn2)c1)P(=O)(OCC)OCC)OCC (stereo not shown) [Tetraethyl 1-[3-(2-pyridin-2-yl-ethoxy)-phenyl]-ethylidene-1,2-bisphosphonate]	–	–	–	–	–	–	31%	110%	51%	124%	274%	206%
CCOP(=O)(OCC)C(c1ccc(OCCCO)cc1)P(=O)(OCC)OCC [Tetraethyl 1-[4(3-hydroxy-propoxy)-phenyl]-methylidene-1,1-bisphosphonate]	–	–	–	–	–	–	-27%	-15%	-21%	-16%	20%	0%
CCOP(=O)(OCC)C(c1ccc(OCCN2CCOCC2)cc1)P(=O)(OCC)OCC [Tetraethyl 1-[4-(2-N-morpholino-ethoxy)-phenyl]-methylidene-1,1-bisphosphonate]	−17%	−20%	−8%	−27%	43%	−3%	–	–	–	–	–	–
CCOP(=O)(OCC)C(c1ccc(OCCN2CCCCC2)cc1)P(=O)(OCC)OCC [Tetraethyl 1-[4-(2-N-piperidino-ethoxy)-phenyl]-methylidene-1,1-bisphosphonate]	−22%	−2%	6%	0%	65%	33%	–	–	–	–	–	–
CCOP(=O)(OCC)C(c1ccc(OCCN2CCCC2)cc1)P(=O)(OCC)OCC [Tetraethyl 1-[4-(2-N-pyrrolidino-ethoxy)-phenyl]-methylidene-1,1-bisphosphonate]	−5%	2%	2%	7%	56%	32%	–	–	–	–	–	–
CCOP(=O)(OCC)C(c1ccc(OCCN2C(=O)CCC2=O)cc1)P(=O)(OCC)OCC [Tetraethyl 1-[4-(2-N-succinimido-ethoxy)-phenyl]-methylidene-1,1-bisphosphonate]	−51%	30%	53%	70%	123%	132%	–	–	–	–	–	–
CCOP(=O)(OCC)C(c1ccc(OCCc2ccccn2)cc1)P(=O)(OCC)OCC [Tetraethyl 1-[4-(2-pyridin-2-yl-ethoxy)-phenyl]-methylidene-1,1-bisphosphonate]	57%	38%	133%	73%	363%	145%	–	–	–	–	–	–
CCOP(=O)(OCC)C(c1ccc(OCCCN2C(=O)c3ccccc3C2=O)cc1)P(=O)(OCC)OCC [Tetraethyl 1-[4-(3-N-phthalimido-propoxy)-phenyl]-methylidene-1,1-bisphosphonate]	–	–	–	–	–	–	–	352%	–	405%	–	482%
CCOP(=O)(CC(c1ccc(OCCCN2C(=O)c3ccccc3C2=O)cc1)P(=O)(OCC)OCC)OCC (stereo not shown) [Tetraethyl 1-[4-(3-N-phthalimidopropoxy)phenyl]-ethylidene-1,2-bisphosphonate]	–	–	–	–	–	–	–	644%	–	942%	–	–
CCOP(=O)(OCC)C(c1ccc(OCCCc2cccnc2)cc1)P(=O)(OCC)OCC [Tetraethyl 1-[4-(3-pyridin-3-yl-propoxy)-phenyl]-methylidene-1,1-bisphosphonate]	63%	136%	103%	188%	337%	331%	–	–	–	–	–	–
CCOP(=O)(OCC)C(c1ccc(OCc2ccc(C#N)cc2)cc1)P(=O)(OCC)OCC [Tetraethyl 1-[4-(4-cyano-benzyloxy)-phenyl]-methylidene-1,1-bisphosphonate]	91%	134%	192%	225%	447%	328%	–	–	–	–	–	–
CCOP(=O)(CC(c1ccc(OCc2ccccn2)cc1)P(=O)(OCC)OCC)OCC (stereo not shown) [Tetraethyl 1-[4-(pyridin-2-yl-methoxy)-phenyl]-ethylidene-1,2-bisphosphonate]	–	152%	–	158%	–	289%	–	–	–	–	–	–
CCOP(=O)(OCC)C(c1ccc(OCc2ccccn2)cc1)P(=O)(OCC)OCC [Tetraethyl 1-[4-(pyridin-2-yl-methoxy)-phenyl]-methylidene-1,1-bisphosphonate]	16%	96%	146%	192%	443%	574%	–	–	–	–	–	–
